Test results taken from US20050020687A1, “Methods of treating inflammatory and viral disorders by administering cyclopentenone compounds” (priority 1996, published 2005).
Entries after “also recorded” stand apart in the source; their conditions may differ. Read-outs that look alike come from different tables or passages of the source.

Tests used:
NF-κB = assay: TPA-induced NF-κB activation by EMSA in Jurkat cells; conditions: for IC90: read-out: NF-κB inhibition IC90, TPA 25 ng/ml; for TPA-induced NF-κB activation at 500 μM: 500 μM for 1 hour then TPA 25 ng/ml; for concentrations found to inhibit NF-κB activation: FIG. 10
Experimental: (§1) Three hours after treatment, whole cell extracts were prepared and analyzed by EMSA (Electrophoretic Mobility Shift Assay) as described in Amici et al., 1995, supra. After a 20 minute incubation at room temperature, HSF-HSE or NF-κB-DNA-complexes were analyzed by nondenaturing 4% polyacrylamide gel electrophoresis and autoradiography. The amount of shifted HSE probe and NF-κB probe, an indicator of HSF DNA-binding activity and NF-κB activity, respectively, were quantitated by Molecular Dynamics Phospholmager (MDP) analysis.
(§2) At different times or three hours after treatment, whole cell extracts were prepared and analyzed by EMSA (Electrophoretic Mobility Shift Assay) as described in Amici et al., 1995, supra. Briefly, extracts (10 μg/sample) were mixed with 0.1 ng of a ^32P-NF-κB element or ^32P—HSE oligonucleotide and 0.5 μg of poly(dI-dC) (Pharmacia Biotech Inc.) in 25 μl of binding buffer (10 nM Tris-Cl, pH 7.8, 50 mM NaCl, 1 mM EDTA, 0.5 mM dithiothreitol, 5% glycerol). After a 20 minute incubation at room temperature, HSF-HSE or NF-κB-DNA-complexes were analyzed by nondenaturing 4% polyacrylamide gel electrophoresis and autoradiography. The amount of shifted HSE probe and NF-κB probe, an indicator of HSF DNA-binding activity and NF-κB activity, respectively, were quantitated by Molecular Dynamics Phospholmager (MDP) analysis.
(§3) Jurkat cells were incubated with the compounds listed in Table 1 (infra) or reference diluent at different concentrations for 1 hour and then were stimulated with TPA (25 ng/ml). After 1 hour at 37° C. the whole-cell extracts were prepared and subjected to EMSA to determine NF-κB and HSF activation. The levels of binding-DNA activity of NF-κB were quantified with Molecular Dynamics Phosphorlmager analysis.

HSP70 gene transcription = assay: Transcription run-on assay in isolated K562 nuclei
Experimental: In vitro run-on transcription reactions were performed in isolated K562 nuclei as described in Banerji et al, 1984, Mol. Cell. […] The vector plasmid (pBluescript) was used as a non-specific hybridization control. Following hybridization, the filters were visualized by autoradiography and the radioactivity was quantitated by MDP analysis. The values are expressed as arbitrary units obtained by comparing transcription rates to control levels.

[1] = test system: heat shock transcription factor (HSF); assay: HSF activation by EMSA in K562 cells; conditions: 500 μM
Experimental: K562 human erythroleukemia cells, monolayers of monkey kidney cells (MA104 cells), and Jurkat cells were grown in RPMI 1640 medium supplemented with 10% fetal calf serum and antibiotics at 37° C. in a 5% CO2 humidified atmosphere (Amici et al., 1995, Cancer Research 55: 14452-4457).
At different times following 2-cyclopenten-1-one treatment or 3 hours following heat shock, whole cell extracts were prepared and analyzed by EMSA (Electrophoretic Mobility Shift Assay) as described in Amici et al., 1995, supra.

[2] = test system: heat shock transcription factor (HSF); assay: HSF activation by EMSA in Jurkat cells; conditions: for HSF activation at 500 μM: 500 μM for 1 hour then TPA; for concentrations found to activate HSF: TPA 25 ng/ml, FIG. 10
Experimental: as §1, §2, §3

VSV proteins = type: cell-based, vesicular stomatitis virus; conditions: VSV-infected MA104 cells, [35S]-methionine, SDS-PAGE
[3] = test system: vesicular stomatitis virus (VSV), Indiana serotype (Orsay); type: cell-based; conditions: MA104 cells
HSP70 [4] = assay: HSP70 and total protein synthesis in K562 cells ([35S]-methionine); conditions: 500 μM
Experimental: K562 cells treated with 500 μM 2 cyclopenten-1-one for different times were pulse-labeled with L-[^35S]-methionine (10 μCi/10^6 cells) for 1 hour. Cells were washed with phosphate buffered saline (PBS) and lysed with 400 μl of lysis buffer (20 nM Tris-Ci, pH 7.4, 0.1 M NaCl, 5 mM MgCl2, 1% Nonidet P-40, 0.5% SDS) containing protease inhibitors. After cell lysis, the radioactivity incorporated into trichloroacetic acid-insoluble material was determined, and an aliquot of samples containing the same amount of radioactivity were analyzed by 10% SDS-PAGE and autoradiography. HSP70 synthesis was determined by densitometric analysis of the autoradiograms. Total protein synthesis was determined as [^35S]-methionine incorporation into TCA-insoluble material (Amici et al., 1993, Exp. Cell. Res. 207. 230-234).

[5] = test system: HSP90 and HSP70 gene transcription; assay: Transcription run-on assay in isolated Jurkat nuclei; type: cell-based, human
[6] = test system: Influenza A virus A/PR8/34 (H1N1) (PR8 virus); assay: PR8 influenza virus replication in MDCK cells (HAU and CPE50%); type: cell-based
PR8 virus = assay: Virus titer in the lungs of PR8-infected mice; type: in vivo, Balb/c mice; conditions: 10 μg/mouse/day i.p., four days after infection with 1 HAU PR8 virus/mouse
[7] = 10 μg/day/mouse i.p., for 4 days
[8] = test system: PR8 influenza virus proteins; type: cell-based, Influenza A virus
PR8 influenza virus = assay: Survival and body weight of PR8-infected Balb/c mice; type: in vivo
HSP70 [9] = assay: Cellular and heat shock protein synthesis in MDCK cells; type: cell-based, canine

CC(=O)NC(Cc1ccccc1)C(=O)Oc1ccc2ccccc2c1 (racemic) [APNE, N-acethyl-DL-phenylalanine-β-napthylester]
IC90 (NF-κB): 300 µM

O=C1C=CCC1 [2-cyclopenten-1-one]
HSP70 mRNA transcription by 24 hours after treatment (HSP70 gene transcription): decreased
time after treatment at which HSP70 mRNA transcription was detected (HSP70 gene transcription): 1.5 h
time after treatment at which HSP70 transcription rates were maximal (HSP70 gene transcription): 6 to 9 h
transcription of other stress proteins (HSC70, GRP78/BiP, heme-oxygenase) (HSP70 gene transcription): not affected
less activated HSF at 24 hours than at 9 hours after treatment [1]: Approximately 50%
time after treatment at which activation of HSF was detected [1]: 1.5 h
time after treatment of maximum levels of HSF activation [1]: 9 h
HSF activation at 500 μM ([2]; EMSA): detected
HSF activation at 125 μM ([2]; same samples as NF-κB EMSA): detectable
effect on VSV protein synthesis (VSV proteins): selective block of the viral protein synthesis
TPA-induced NF-κB activation at 500 μM (NF-κB): not detectable; also recorded: inhibits TPA-induced NF-κB activation
lowest concentration inhibiting NF-κB activation by TPA (NF-κB; TPA 25 ng/ml): 125 µM
inhibition of production of VSV infectious particles with respect to control ([3]; 24 h p.i., lower end of 100-500 μM): 10 times
inhibition of production of VSV infectious particles with respect to control ([3]; 24 h p.i., upper end of 100-500 μM): more than 1000 times
HSP70 protein synthesis versus cellular protein synthesis (HSP70 [4]): selectively stimulate HSP70 protein synthesis

O=c1oc(Cl)c(Cl)c2ccccc12 [DCIC, 3,4-dichloro-iso-coumarine]
HSP90 and HSP70 mRNA transcription by 24 hours after treatment [5]: decreased
selectivity of stress protein induction (HSP90, Grp78, HSC70, HSP70) [5]: selectively induces the expression of HSP90 and HSP70
time after treatment at which HSP90 and HSP70 mRNA transcription were detected [5]: 1 h
time after treatment at which HSP90 and HSP70 transcription rates were maximal [5]: about 3 hours
duration of HSF activation following initiation of treatment ([2]; 5 μM, EMSA): 12 h
time after treatment at which activation of HSF was detected ([2]; 5 μM, EMSA): 1 h
time after treatment of maximum levels of HSF activation ([2]; 5 μM, EMSA): 3 h
concentrations found to activate HSF ([2]; EMSA): 5 to 10 µM
effect on VSV protein synthesis (VSV proteins): selective block of the viral protein synthesis
concentrations found to inhibit NF-κB activation (NF-κB; TPA 25 ng/ml): 5 to 10 µM
IC90 (NF-κB): 5.5 µM
inhibition of production of VSV infectious particles with respect to control ([3]; lower end of 5-45 μM): 50%
inhibition of production of VSV infectious particles with respect to control ([3]; upper end of 5-45 μM): more than 98%

CCCCC[C@H](O)/C=C/[C@H]1C=CC(=O)[C@@H]1CCCCCCC(=O)O [PGA1, Prostaglandin A1]
effect on PR8 virus replication, comparison of prostaglandins [6]: only modestly and transiently inhibited
decrease of PR8 virus yield up to 48 hours p.i. ([6]; MDCK cells, 10 μg/ml, data not shown): more than 90 % of control

O=C1CCCC1 [cyclopentanone, reference compound]
HSF activation at 500 μM ([2]; EMSA): not detected
TPA-induced NF-κB activation at 500 μM (NF-κB): do not inhibit NF-κB activation

C1=CCCC1 [cyclopentene, reference compound]
HSF activation at 500 μM ([2]; EMSA): not detected
TPA-induced NF-κB activation at 500 μM (NF-κB): do not inhibit NF-κB activation

CCCCCC(O)C/C=C1/C(=O)C=CC1C/C=C\CCCC(=O)O (stereo not drawn) [Δ^12-PGJ2, 9-deoxy-Δ^9,Δ^12-13,14-dihydro-PGD2]
virus titer in the lungs (PR8 virus): 0.07±0.03×10^4 CPE50% units/gr of lung tissue
signs of toxicity [7]: did not show any sign of toxicity
loss of body weight in infected animals ([7]; data not shown): reduced
PR8 protein synthesis [8]: dramatic reduction
viral proteins by immunoblot analysis at 24 hours p.i. [8]: not detectable
uptake of precursors and DNA and RNA synthesis (MDCK cells): did not inhibit either the uptake of precursors or DNA and RNA synthesis
virus-induced inhibition of cellular RNA synthesis (MDCK cells): prevented
mouse survival (PR8 influenza virus; 1 μg/day/mouse i.p. for 7 days, FIG. 15A): no effect on mouse survival
survival of the animals (PR8 influenza virus; 5 μg/day/mouse i.p. daily for 7 days, FIG. 15B): 60%
mice survival on day 25 p.i. (PR8 influenza virus; 5 μg/day/mouse i.p. for 7 days, FIG. 15A): 50%
survival of the animals (PR8 influenza virus; 5 μg/day/mouse i.p. on days 0, 2 and 4, FIG. 15B): approximately 30%
body weight at 7 days p.i. (PR8 influenza virus; PR8-infected mice, 7-day treatment, 5 μg/day/mouse): 18.25 ± 0.68 g
time after treatment at which HSP70 synthesis was detectable (HSP70 [9]): 3 h
time for which HSP70 synthesis continued to be detectable (HSP70 [9]): at least 12 hours
synthesis of HSP90 (HSP70 [9]; MDCK cells, 6 μg/ml): enhanced
synthesis of HSC70 and HSP70 (HSP70 [9]; MDCK cells, 6 μg/ml, SDS-PAGE and immunoblot): markedly induced
protein synthesis in uninfected cells (HSP70 [9]; uninfected MDCK cells, 6 μg/ml, 24 hours): modest reduction
PR8 virus yield at concentrations higher than 6 μg/ml [6]: not detectable
PR8 virus yield in HAU [6]: 0 HAU
effect on PR8 virus replication, comparison of prostaglandins [6]: most effective cyclopentenone prostaglandin
infectious virus titer [6]: 3.2+0.6×10^1 CPE5O % units/ml
inhibition of PR8 virus production [6]: greater than 95 % of control
reduction of infectious virus titers [6]: more than 99 % of control
period for which antiviral activity is sustained ([6]; MDCK cells, 6 μg/ml): at least 72 hours p.i.
inhibition of PR8 virus replication up to 72 h p.i. ([6]; MDCK cells, single treatment with 6 μg/ml): more than 95%

Nα-tosyl-lysine-chloromethylketone [TLCK]
concentrations found to activate HSF ([2]; EMSA): 30 to 75 µM
concentrations found to inhibit NF-κB activation (NF-κB; TPA 25 ng/ml): 30 to 75 µM
IC90 (NF-κB): 135 µM

tosyl-L-phenylalanine-chloromethylketone [TPCK]
concentrations found to activate HSF ([2]; EMSA): 12.5 to 25 µM
concentrations found to inhibit NF-κB activation (NF-κB; TPA 25 ng/ml): 12.5 to 25 µM
IC90 (NF-κB): 12 µM
